Measurements taken from US20230227466A1, “SUBSTITUTED THIENOPYRIMIDINES THAT INTERACT WITH THE RAS SUPERFAMILY FOR THE TREATMENT OF CANCERS, INFLAMMATORY DISEASES, RASOPATHIES, AND FIBROTIC DISEASE” (SHY Therapeutics, LLC, priority 2020, published 2023).
Read-outs that look alike come from different tables or passages of the source.

Columns and labels:
KRas G12C mutant = target: T1, KRas G12C mutant (Homo sapiens, UniProt P01116, G12C); assay: Ras GTP binding domain inhibition assay (labeled-GTP competition, cell-free)
T1 construct: made in house
Procedure, shortened: (§1)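 Labeled-GTP competition read out as bound Cy3/Cy5-GTP fluorescence after washes, with 100 nM tracer for 45 min at RT. Before tracer, compounds at 20 μM, or a dilution series for IC50, sat 3 h at RT on the Ni-immobilized His-tagged GTPase. Sos GEF (10-30 μg/mL) was optionally present for the last hour.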

KRas G12D mutant = target: T2, KRas G12D mutant (Homo sapiens, UniProt P01116, G12D); assay: as above
T2 construct: made in house
Procedure, shortened: as §1

KRas Q61H mutant = target: T3, KRas Q61H mutant (Homo sapiens, UniProt P01116, Q61H); assay: as above; settings: at 20 μM
T3 construct: made in house
Procedure, shortened: as §1

[1] = tested on: MIA-PaCa-2 pancreatic cancer cell line (KRAS G12C); assay: Cell proliferation assay (CellTiter 96 Aqueous One); assay type: cell-based; settings: Homo sapiens; for IC50: MIA PaCa-2, MIA PaCa-2; for inhibition at 10 µM: MIA PaCa-2, read-out: % inh cell proliferation (10 μM) in MIA PaCa-2
Procedure, shortened: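 Read-out is MTS-based viability (CellTiter 96 Aqueous One) after 2–4 days of compound exposure at 37 °C in 10% FBS with 0.3% DMSO.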

KRas wild type = KRas wild type (Homo sapiens, UniProt P01116); assay: Ras GTP binding domain inhibition assay (labeled-GTP competition, cell-free); parameters: made in house
Procedure, shortened: as §1

Rac-1 = Rac-1 (Homo sapiens, UniProt P63000); assay: as above; parameters: made in house
Procedure, shortened: as §1

Rho-A = Rho-A (Homo sapiens, UniProt P61586); assay: as above; parameters: made in house
Procedure, shortened: as §1

[2] = with SOS, read-out: KRas G12C mutant + SOS: % inh.
[3] = without SOS, read-out: KRas G12C mutant: % inh.
[4] = with SOS, read-out: KRas G12D mutant + SOS: % inh.
[5] = without SOS, read-out: KRas G12D mutant: % inh.
[6] = with SOS, read-out: KRas Q61H mutant + SOS: % inh.
[7] = without SOS, read-out: KRas Q61H mutant: % inh.
[8] = with SOS, read-out: KRas wild type + SOS: % inh.
[9] = without SOS, read-out: KRas wild type: % inh.
[10] = without SOS, read-out: Rac-1: % inh.
[11] = without SOS, read-out: Rho-A: % inh.

| inhibition at 20 µM (KRas G12C mutant; [2]) [%] | inhibition at 20 µM (KRas G12C mutant; [3]) [%] | inhibition at 20 µM (KRas G12D mutant; [4]) [%] | inhibition at 20 µM (KRas G12D mutant; [5]) [%] | inhibition at 20 µM (KRas Q61H mutant; [6]) [%] | inhibition at 20 µM (KRas Q61H mutant; [7]) [%] | IC50 [1] [µM] | inhibition at 20 µM (KRas wild type; [8]) [%] | inhibition at 20 µM (KRas wild type; [9]) [%] | inhibition at 20 µM (Rac-1; with SOS, read-out: Rac-1 + SOS: % inh.) [%] | inhibition at 20 µM (Rac-1; [10]) [%] | inhibition at 20 µM (Rho-A; with SOS, read-out: Rho-A + SOS: % inh.) [%] | inhibition at 20 µM (Rho-A; [11]) [%] | Structure (SMILES) | inhibition at 10 µM [1] [%] |
| --- | --- | --- | --- | --- | --- | --- | --- | --- | --- | --- | --- | --- | --- | --- |
| 51 to 75 | 51 to 75 | 51 to 75 | 26 to 50 | 51 to 75 | 51 to 75 | < 1 | 51 to 75 | 76 to 100 | 26 to 50 | 26 to 50 | 76 to 100 | 51 to 75 | CO[C@H]1C[C@H](CNc2nc(-c3nccn3C)nc3sc(-c4ccn(C(C)C)n4)c(C)c23)C1 [Compound 48, 6-(1-Isopropyl-1H-pyrazol-3-yl)-N-(((1r,3r)-3-methoxycyclobutyl)methyl)-5-methyl-2-(1-methyl-1H-imidazol-2-yl)thieno[2,3-d]pyrimidin-4-amine] | 76 to 100 |
| 51 to 75 | 1 to 25 | 26 to 50 | 0 | 51 to 75 | 51 to 75 | 5 to 10 | 76 to 100 | 51 to 75 | – | 26 to 50 | – | 51 to 75 | CO[C@H]1CCCN(c2nc(-c3nccn3C)nc3sc(-c4ccn(C(C)C)n4)c(C)c23)C1 [Compound 49, (S)-6-(1-Isopropyl-1H-pyrazol-3-yl)-4-(3-methoxypiperidin-1-yl)-5-methyl-2-(1-methyl-1H-imidazol-2-yl)thieno[2,3-d]pyrimidine] | 76 to 100 |
| 51 to 75 | 26 to 50 | 1 to 25 | 0 | 51 to 75 | 26 to 50 | – | 51 to 75 | 51 to 75 | – | 0 | – | 76 to 100 | CO[C@@H]1CCCN(c2nc(-c3nccn3C)nc3sc(-c4ccn(C(C)C)n4)c(C)c23)C1 [Compound 50, (R)-6-(1-Isopropyl-1H-pyrazol-3-yl)-4-(3-methoxypiperidin-1-yl)-5-methyl-2-(1-methyl-1H-imidazol-2-yl)thieno[2,3-d]pyrimidine] | 76 to 100 |
| 26 to 50 | 51 to 75 | 51 to 75 | 26 to 50 | 51 to 75 | 51 to 75 | > 10 | 51 to 75 | 51 to 75 | – | 51 to 75 | – | 76 to 100 | Cc1c(-c2ccn(C(C)C)n2)sc2nc(-c3nccn3C)nc(NC[C@@H]3CCC(=O)N3)c12 [Compound 51] | 0 |
| 26 to 50 | 51 to 75 | 51 to 75 | 51 to 75 | 51 to 75 | 51 to 75 | > 10 | 51 to 75 | 51 to 75 | – | 51 to 75 | – | 76 to 100 | Cc1c(-c2ccn(C(C)C)n2)sc2nc(-c3nccn3C)nc(NC[C@H]3CCC(=O)N3)c12 [Compound 52, (R)-5-(((6-(1-Isopropyl-1H-pyrazol-3-yl)-5-methyl-2-(1-methyl-1H-imidazol-2-yl)thieno[2,3-d]pyrimidin-4-yl)amino)methyl)pyrrolidin-2-one] | 1 to 25 |
| 26 to 50 | 26 to 50 | 26 to 50 | 1 to 25 | 26 to 50 | 26 to 50 | 5 to 10 | 51 to 75 | 26 to 50 | – | 1 to 25 | – | 76 to 100 | Cc1c(-c2ccn(C(C)C)n2)sc2nc(-c3nccn3C)nc(NCCc3ncc[nH]3)c12 [Compound 53, N-(2-(1H-Imidazol-2-yl)ethyl)-6-(1-isopropyl-1H-pyrazol-3-yl)-5-methyl-2-(1-methyl-1H-imidazol-2-yl)thieno[2,3-d]pyrimidin-4-amine] | 76 to 100 |
| 76 to 100 | 76 to 100 | 76 to 100 | 51 to 75 | 76 to 100 | 51 to 75 | < 1 | 76 to 100 | 76 to 100 | – | 26 to 50 | – | 51 to 75 | CO[C@H]1CC[C@H](Nc2nc(-c3nccn3C)nc3sc(-c4ccn(C(C)C)n4)c(C)c23)CC1 [Compound 54] | 76 to 100 |
| 26 to 50 | 26 to 50 | 26 to 50 | 51 to 75 | 26 to 50 | 1 to 25 | < 1 | 1 to 25 | 1 to 25 | – | 0 | – | 51 to 75 | CO[C@H]1CC[C@@H](Nc2nc(-c3nccn3C)nc3sc(-c4ccn(C(C)C)n4)c(C)c23)CC1 [Compound 55] | 76 to 100 |
| 26 to 50 | 26 to 50 | 26 to 50 | 1 to 25 | 26 to 50 | 26 to 50 | 5 to 10 | 26 to 50 | 26 to 50 | – | 0 | – | 51 to 75 | Cc1c(-c2ccn(C(C)C)n2)sc2nc(-c3nccn3C)nc(NCc3ncc[nH]3)c12 [Compound 57, N-((1H-Imidazol-2-yl)methyl)-6-(1-isopropyl-1H-pyrazol-3-yl)-5-methyl-2-(1-methyl-1H-imidazol-2-yl)thieno[2,3-d]pyrimidin-4-amine] | 51 to 75 |
| 76 to 100 | 76 to 100 | 51 to 75 | 26 to 50 | 51 to 75 | 51 to 75 | 5 to 10 | 76 to 100 | 76 to 100 | – | 26 to 50 | – | 76 to 100 | Cc1c(-c2ccn(C(C)C)n2)sc2nc(-c3nccn3C)nc(NCCc3cn(C)cn3)c12 [Compound 58, 6-(1-Isopropyl-1H-pyrazol-3-yl)-5-methyl-2-(1-methyl-1H-imidazol-2-yl)-N-(2-(1-methyl-1H-imidazol-4-yl)ethyl)thieno[2,3-d]pyrimidin-4-amine] | 76 to 100 |
| 76 to 100 | 26 to 50 | 51 to 75 | 26 to 50 | 51 to 75 | 26 to 50 | 5 to 10 | 51 to 75 | 26 to 50 | – | 26 to 50 | – | 51 to 75 | COc1cccc(Nc2nc(-c3nccn3C)nc3sc(-c4ccn(C(C)C)n4)c(C)c23)n1.Cl [Compound 65, 6-(1-Isopropyl-1H-pyrazol-3-yl)-N-(6-methoxypyridin-2-yl)-5-methyl-2-(1-methyl-1H-imidazol-2-yl)thieno[2,3-d]pyrimidin-4-amine hydrochloride salt] | 76 to 100 |
| 26 to 50 | 26 to 50 | 51 to 75 | 76 to 100 | 26 to 50 | 51 to 75 | < 1 | 51 to 75 | 51 to 75 | – | 51 to 75 | – | 76 to 100 | COc1cc(Nc2nc(-c3nccn3C)nc3sc(-c4ccn(C(C)C)n4)c(C)c23)ncn1 [Compound 66, 6-(1-Isopropyl-1H-pyrazol-3-yl)-N-(6-methoxypyrimidin-4-yl)-5-methyl-2-(1-methyl-1H-imidazol-2-yl)thieno[2,3-d]pyrimidin-4-amine] | 76 to 100 |
| 51 to 75 | 26 to 50 | 51 to 75 | 0 | 51 to 75 | 51 to 75 | 5 to 10 | 51 to 75 | 26 to 50 | – | 1 to 25 | – | 26 to 50 | COc1cc(Nc2nc(-c3nccn3C)nc3sc(-c4ccn(C(C)C)n4)c(C)c23)ccn1 [Compound 67, 6-(1-Isopropyl-1H-pyrazol-3-yl)-N-(2-methoxypyridin-4-yl)-5-methyl-2-(1-methyl-1H-imidazol-2-yl)thieno[2,3-d]pyrimidin-4-amine] | 76 to 100 |
